{"source": "patent US20160366882A1", "about": "“AGROCHEMICAL COMPOSITIONS FOR INDUCING ABIOTIC STRESS TOLERANCE” (VIB VZW, priority 2012, published 2016)", "key": {"[1]": {"test_system": "catalase-2 mutant A. thaliana plantlets (cat2-2)", "assay": "agar assay: rescue of cell death of catalase-2 mutants under photorespiratory conditions (Restricted Gas exchange Constant Light; RGCL)", "type": "in vivo, Arabidopsis thaliana", "settings": "grown under photorespiratory conditions", "method": "FIG. 2: effect of 5 μM of compound 4 on the rescue of cell death of the catalase-2 mutant A. thaliana plantlets when grown under photorespiratory conditions. Photorespiratory conditions are, for example, as herein used, restricted-gas-exchange-constant light conditions. […] Photorespiration (Rp) is a major source of detrimental effects and yield losses in crop plants. Catalase is one of the crucial proteins in the Rp process since it provides the dissipation sink of photosynthetic excitation overload in the role of Rp as a photo-protective mechanism. Secondly, and as part of the same process, catalase provides effective defense against excessive hydrogen peroxide levels, without requiring additional energy from other sources. Catalase knock-out mutant plants thus provide an excellent tool to study the process of Rp (see Vandenabeele S et al., (2003) PNAS 100, 26, 16113-16118). In the disclosure, we developed a high-throughput screening assay by using a catalase-2 deficient plant. […] Fv/Fm is presented as a ratio of variable fluorescence (Fv) over the maximum fluorescence value (Fm). […] On a regular basis Fv/Fm was monitored for all wells, using a Walz Maxi PAM imager. Several days after transfer to constant light the individual wells were visually scored for cell death. […] Three persons scored independently, and only a consensus of ⅔ scores were maintained as positive hits. […]"}, "[2]": {"test_system": "Maize of the variety Maibi", "assay": "frost tolerance in maize (crop condition index after frost regime)", "type": "in vivo", "settings": "24 h later 6 hours at −2° C., assessed 2 days after treatment", "method": "Maize of the variety Maibi was sown in small pots (8×8×8 cm) filled with universal peat at 4 grains per pot. The plants were grown in a non-heated greenhouse until BBCH 13 (3 unfolded leaves). At that stage plants were either or not treated with dichloroprop-P (Duplosan DP, 600 g/l dichloroprop-P, Nufarm UK Limited), using a Birchmeier hand sprayer with an operating pressure of 2 bar. Per object 10 pots were treated. The 10 pots were put in line, 5 cm apart, and were sprayed overhead within 6 seconds. Four different concentrations of dichloroprop-P were applied: 4 mg/l, 8 mg/1, 12 mg/l or 16 mg/l. 24 hours after treatment, the plants were transferred in to a refrigerator that was set at −2° C. for 6 hours. Afterwards the plants were transferred back to the greenhouse. The day after the cold treatment (so 2 days after application of dichloroprop-P) the plants were assessed visually for frost damage. Plants were divided into 3 categories: Good crop condition (=2), only moderate crop condition (=1) or bad crop condition (=0), based on which a crop condition index was calculated, ranging from 0 (bad crop condition) to 100 (good crop condition)."}, "[3]": {"test_system": "Oilseed rape of the variety Alessio", "assay": "salt tolerance in oilseed rape (vitality index after salt water irrigation)", "type": "in vivo", "settings": "24 h later 50 ml salt water per pot, 80 grams of NaCl per liter, assessed 3 and 4 days after treatment", "method": "Oilseed rape of the variety Alessio was sown in small pots (8×8×8 cm) filled with universal peat at 4 grains per pot. The plants were grown in a non-heated greenhouse until BBCH 13 (3 unfolded leaves). At that stage the number of plants per pot was reduced to 2, and the plants were either or not treated with dichloroprop-P (Duplosan DP, 600 g/l dichloroprop-P, Nufarm UK Limited), using a Birchmeier hand sprayer with an operating pressure of 2 bar. Per object 8 pots were treated. The 8 pots were put in line, 5 cm apart, and were sprayed overhead within 6 seconds. Two different concentrations of dichloroprop-P were applied: 4 mg/l or 8 mg/l. 24 hours after treatment, the plants were irrigated with salt water, giving 50 ml of water per pot at a concentration of 80 grams of NaCl per liter of water. The following days the plants were assessed visually for salt damage. Plants were divided into 3 categories: high vitality (=2), only moderate vitality (=1) or low vitality (=0), based on which a vitality index was calculated, ranging from 0 (low vitality) to 100 (high vitality)."}}}
{"smiles": "Cc1ccnc(NC(=O)COc2ccc(Cl)cc2Cl)c1", "note": "[variant 2]", "values": [{"measurement": "rescue of cell death of the cat2-2 mutant", "setting": "[1]; 50 nM", "result": "rescues cell death"}]}
{"smiles": "CC(Oc1ccc(Cl)cc1Cl)C(=O)O", "note": "(stereo not shown) [dichloroprop-P]", "values": [{"measurement": "crop condition after frost (frost tolerance)", "setting": "[2]; spray 4 mg/l at BBCH 13", "result": "better crop condition after frost"}, {"measurement": "crop condition after frost (frost tolerance)", "setting": "[2]; spray 12 mg/l at BBCH 13", "result": "negative effect on frost tolerance"}, {"measurement": "crop condition after frost (frost tolerance)", "setting": "[2]; spray 16 mg/l at BBCH 13", "result": "negative effect on frost tolerance"}, {"measurement": "vitality in salt stress conditions (salt stress tolerance)", "setting": "[3]; spray 4 mg/l at BBCH 13", "result": "comparable increase in salt stress tolerance"}, {"measurement": "vitality in salt stress conditions (salt stress tolerance)", "setting": "[3]; spray 8 mg/l at BBCH 13", "result": "comparable increase in salt stress tolerance"}]}
{"smiles": "CCCCC(CC)COC(=O)C(C)Oc1ccc(Cl)cc1Cl", "note": "(stereo not shown) [variant 1]", "values": [{"measurement": "rescue of cell death of the cat2-2 mutant", "setting": "[1]; 100 nM", "result": "rescues cell death"}]}
